{"source": "patent US12577245B2", "about": "“Sulfonyl benzamide derivatives as Bcl-2 inhibitors” (ASCENTAGE PHARMA (SUZHOU) CO., LTD., priority 2021, dated 2026)", "data": [{"molecular_target": "Bcl-2 G101V (Homo sapiens, UniProt P10415, G101V)", "assay": "Bcl-2 G101V inhibition, fluorescence polarization (Flu-BIM tracer) binding assay", "conditions": "FP; 20 nM Bcl2, 5 nM Flu-BIM, 1 h incubation; read-out: Bcl-2 G101V (FP)", "units": {"IC50": "nM"}, "values": [{"molecule": "CC1(C)CCC(CN2CCN(c3ccc(C(=O)NS(=O)(=O)c4ccc(NC[C@H]5CC[C@](C)(O)CC5)c([N+](=O)[O-])c4)c(Oc4cnc5[nH]ccc5c4)c3)CC2)=C(c2cc(-c3ccc(C(F)(F)F)cc3)cs2)C1", "note": "[Example 41, 2-((1H-pyrrolo[2,3-b]pyridin-5-yl)oxy)-4-(4-((4,4-dimethyl-2-(4-(4-(trifluoromethyl)phenyl)thiophen-2-yl)cyclohex-1-en-1-yl)methyl)piperazin-1-yl)-N-((4-((((1r,4r)-4-hydroxy-4-methylcyclohexyl)methyl)amino)-3-nitrophenyl)sulfonyl)benzamide]", "IC50": 34.4}, {"molecule": "CC1(C)CCC(CN2CCN(c3ccc(C(=O)NS(=O)(=O)c4ccc(NC[C@H]5COCCO5)c([N+](=O)[O-])c4)c(Oc4cnc5[nH]ccc5c4)c3)CC2)=C(c2cc(NC(=O)c3ccccc3)cs2)C1", "note": "[Example 18, (S)—N-((4-(((1,4-dioxan-2-yl)methyl)amino)-3-nitrophenyl)sulfonyl)-2-((1H-pyrrolo[2,3-b]pyridin-5-yl)oxy)-4-(4-((2-(4-benzamidothiophen-2-yl)-4,4-dimethylcyclohex-1-en-1-yl)methyl)piperazin-1-yl)benzamide]", "IC50": 66.3}, {"molecule": "Cc1ccc(C2=C(CN3CCN(c4ccc(C(=O)NS(=O)(=O)c5ccc(NCC6CCOCC6)c([N+](=O)[O-])c5)c(Oc5cnc6[nH]ccc6c5)c4)CC3)CCC(C)(C)C2)s1", "note": "[Example 6, 2-((1H-pyrrolo[2,3-b]pyridin-5-yl)oxy)-4-(4-((4,4-dimethyl-2-(5-methylthiophen-2-yl)cyclohex-1-en-1-yl)methyl)piperazin-1-yl)-N-((3-nitro-4-(((tetrahydro-2H-pyran-4-yl)methyl)amino)phenyl)sulfonyl)benzamide]", "IC50": 33.9}, {"molecule": "CC1(C)CCC(CN2CCN(c3ccc(C(=O)NS(=O)(=O)c4ccc(NC[C@H]5CC[C@](C)(O)CC5)c([N+](=O)[O-])c4)c(Oc4cnc5[nH]ccc5c4)c3)CC2)=C(c2cc(-c3c(F)cc(C(C)(C)O)cc3F)cs2)C1", "note": "[Example 63, 2-((1H-pyrrolo[2,3-b]pyridin-5-yl)oxy)-4-(4-((2-(4-(2,6-difluoro-4-(2-hydroxypropan-2-yl)phenyl)thiophen-2-yl)-4,4-dimethylcyclohex-1-en-1-yl)methyl)piperazin-1-yl)-N-((4-((((1r,4r)-4-hydroxy-4-methylcyclohexyl)methyl)amino)-3-nitrophenyl)sulfonyl)benzamide]", "IC50": 32.3}, {"molecule": "CC1(C)CCC(CN2CCN(c3ccc(C(=O)NS(=O)(=O)c4ccc(NC[C@H]5COCCO5)c([N+](=O)[O-])c4)c(Oc4cnc5[nH]ccc5c4)c3)CC2)=C(c2cc(-c3ccc(F)cc3)cs2)C1", "note": "[Example 33, (S)—N-((4-(((1,4-dioxan-2-yl)methyl)amino)-3-nitrophenyl)sulfonyl)-2-((1H-pyrrolo[2,3-b]pyridin-5-yl)oxy)-4-(4-((2-(4-(4-fluorophenyl)thiophen-2-yl)-4,4-dimethylcyclohex-1-en-1-yl)methyl)piperazin-1-yl)benzamide]", "IC50": 33.1}]}]}
